Results on 6 molecules are retold here after ChEMBL document CHEMBL5724914, “Linking interpersonal differences in gut microbiota composition and drug biotransformation activity” (2024).

The nature of series [1]: The drug is tested on Z-025 corresponding to rabbit gut metagenome with ENA study accession number: PRJEB37062 and ENA sample accession number: ERS12561824 for biotransformation under anaerobic condition. The drug concentrations were measured over 9 timepoints collected between 0 and 24 hours of incubation by liquid-chromatography-coupled mass spectrometry (LC–MS). The settings on record: 2 µM.

Series [2] can be described thus: The drug is tested on WLS-069 corresponding to human gut metagenome with ENA study accession number: PRJEB37062 and ENA sample accession number: ERS12561748 for biotransformation under anaerobic condition. The drug concentrations were measured over 9 timepoints collected between 0 and 24 hours of incubation by liquid-chromatography-coupled mass spectrometry (LC–MS). The conditions noted are these: 2 µM.

Series [3] can be described thus: The drug is tested on WLS-010 corresponding to human gut metagenome with ENA study accession number: PRJEB37062 and ENA sample accession number: ERS12561743 for biotransformation under anaerobic condition. The drug concentrations were measured over 9 timepoints collected between 0 and 24 hours of incubation by liquid-chromatography-coupled mass spectrometry (LC–MS). The conditions noted are these: 2 µM.

The conditions of series [4]: human gut metagenome, 24 h, 2 µM.
For series [5] the following is noted: human gut metagenome, 24 h, 2 µM. The source holds these as a separate data set.
Series [6] can be described thus: The drug is tested on WLS-370 corresponding to human gut metagenome with ENA study accession number: PRJEB37062 and ENA sample accession number: ERS12561793 for biotransformation under anaerobic condition. The drug concentrations were measured over 9 timepoints collected between 0 and 24 hours of incubation by liquid-chromatography-coupled mass spectrometry (LC–MS). The conditions noted are these: 2 µM.

A short description of series [7]: The drug is tested on Z-013 corresponding to rabbit gut metagenome with ENA study accession number: PRJEB37062 and ENA sample accession number: ERS12561813 for biotransformation under anaerobic condition. The drug concentrations were measured over 9 timepoints collected between 0 and 24 hours of incubation by liquid-chromatography-coupled mass spectrometry (LC–MS). The settings on record: 2 µM.

The conditions of series [8]: human gut metagenome, 24 h, 2 µM. The source holds these as a separate data set.
Series [9] in a line: The drug is tested on Z-014 corresponding to rat gut metagenome with ENA study accession number: PRJEB37062 and ENA sample accession number: ERS12561814 for biotransformation under anaerobic condition. The drug concentrations were measured over 9 timepoints collected between 0 and 24 hours of incubation by liquid-chromatography-coupled mass spectrometry (LC–MS). The settings on record: 2 µM.

Series [10] is described as follows: The drug is tested on Z-030 corresponding to mouse gut metagenome with ENA study accession number: PRJEB37062 and ENA sample accession number: ERS12561829 for biotransformation under anaerobic condition. The drug concentrations were measured over 9 timepoints collected between 0 and 24 hours of incubation by liquid-chromatography-coupled mass spectrometry (LC–MS). The settings on record: 2 µM.

For series [11] the following is noted: human gut metagenome, 24 h, 2 µM. The source holds these as a separate data set.
Series [12] in a line: The drug is tested on WLS-090 corresponding to human gut metagenome with ENA study accession number: PRJEB37062 and ENA sample accession number: ERS12561753 for biotransformation under anaerobic condition. The drug concentrations were measured over 9 timepoints collected between 0 and 24 hours of incubation by liquid-chromatography-coupled mass spectrometry (LC–MS). The settings on record: 2 µM.

The nature of series [13]: The drug is tested on WLS-082 corresponding to human gut metagenome with ENA study accession number: PRJEB37062 and ENA sample accession number: ERS12561751 for biotransformation under anaerobic condition. The drug concentrations were measured over 9 timepoints collected between 0 and 24 hours of incubation by liquid-chromatography-coupled mass spectrometry (LC–MS). The conditions noted are these: 2 µM.

Series [14] can be described thus: The drug is tested on WLS-027 corresponding to human gut metagenome with ENA study accession number: PRJEB37062 and ENA sample accession number: ERS12561744 for biotransformation under anaerobic condition. The drug concentrations were measured over 9 timepoints collected between 0 and 24 hours of incubation by liquid-chromatography-coupled mass spectrometry (LC–MS). The conditions noted are these: 2 µM.

For series [15] the following is noted: human gut metagenome, 24 h, 2 µM. The source holds these as a separate data set.
For series [16] the following is noted: human gut metagenome, 24 h, 2 µM. This is another data set of the same source.
A short description of series [17]: The drug is tested on WLS-007 corresponding to human gut metagenome with ENA study accession number: PRJEB37062 and ENA sample accession number: ERS12561742 for biotransformation under anaerobic condition. The drug concentrations were measured over 9 timepoints collected between 0 and 24 hours of incubation by liquid-chromatography-coupled mass spectrometry (LC–MS). The settings on record: 2 µM.

For series [18] the following is noted: human gut metagenome, 24 h, 2 µM. The source holds these as a separate data set.
The conditions of series [19]: human gut metagenome, 24 h, 2 µM. This is another data set of the same source.
Series [20] is described as follows: The drug is tested on Z-008 corresponding to metagenome with ENA study accession number: PRJEB37062 and ENA sample accession number: ERS12561808 for biotransformation under anaerobic condition. The drug concentrations were measured over 9 timepoints collected between 0 and 24 hours of incubation by liquid-chromatography-coupled mass spectrometry (LC–MS). The settings on record: 2 µM.
Further: call rule not given here.

`CCN(CC)CCOCCOC(=O)C1(c2ccccc2)CCCC1.O=C(O)CC(O)(CC(=O)O)C(=O)O` [CARBETAPENTANE CITRATE]: the “Bacterial Biotransformation” value in series [1] was “Compound NOT metabolized”; in series [2] it was “Compound metabolized”; in series [3] it was “Compound metabolized”; in series [4], “Compound metabolized”; in [5], “Compound metabolized”; in series [6], “Compound metabolized”. Moreover, the “Bacterial Biotransformation” value in series [7] is listed as “Compound NOT metabolized”; in series [8], “Compound metabolized”; in [9], “Compound NOT metabolized”; in series [10], “Compound NOT metabolized”; in [11], “Compound metabolized”; in series [12], “Compound metabolized”. The “Bacterial Biotransformation” value is listed as “Compound metabolized” in series [13]; “Compound metabolized” in [14]; “Compound metabolized” in series [15]; “Compound metabolized” in series [16]; “Compound NOT metabolized” in [17]; “Compound NOT metabolized” in series [18]. The “Bacterial Biotransformation” value is reported as “Compound metabolized” in series [19] and “Compound NOT metabolized” in series [20].
With `O=C(O)COCCN1CCN(C(c2ccccc2)c2ccc(Cl)cc2)CC1` (stereo not given) [CETIRIZINE], the “Bacterial Biotransformation” value is “Compound NOT metabolized” in series [1]; “Compound metabolized” in series [2]; “Compound metabolized” in series [3]; “Compound metabolized” in [4]; “Compound metabolized” in [5]; “Compound metabolized” in series [6]. The “Bacterial Biotransformation” value in series [7] is given as “Compound NOT metabolized”; in [8], “Compound metabolized”; in series [9] it was “Compound NOT metabolized”; in series [10], “Compound NOT metabolized”; in series [11], “Compound metabolized”; in series [12] it was “Compound metabolized”. The “Bacterial Biotransformation” value in series [13], in series [14], in series [15], in [16], in series [17] and in series [18] was “Compound metabolized” in each case. Besides, the “Bacterial Biotransformation” value was “Compound metabolized” in series [19] and “Compound NOT metabolized” in series [20].
As for `CN/C(=N/CCSCc1nc[nH]c1C)NC#N` [CIMETIDINE], the “Bacterial Biotransformation” value is on record as “Compound NOT metabolized” in [1]; “Compound metabolized” in series [2]; “Compound metabolized” in [3]; “Compound metabolized” in [4]; “Compound metabolized” in series [5]; “Compound NOT metabolized” in series [6]. Also, the “Bacterial Biotransformation” value in series [7] is on record as “Compound NOT metabolized”; in series [8], “Compound NOT metabolized”; in [9] it was “Compound NOT metabolized”; in series [10], “Compound NOT metabolized”; in series [11], “Compound metabolized”; in series [12] it was “Compound metabolized”. Besides, the “Bacterial Biotransformation” value is “Compound metabolized” in series [13]; “Compound metabolized” in series [14]; “Compound metabolized” in [15]; “Compound metabolized” in series [16]; “Compound NOT metabolized” in series [17]; “Compound metabolized” in [18]. The “Bacterial Biotransformation” value in series [19] and in [20] was “Compound NOT metabolized” throughout.
For `Br.CN(C)CCCC1(c2ccc(F)cc2)OCc2cc(C#N)ccc21` (stereo not given) [CITALOPRAM HYDROBROMIDE], the “Bacterial Biotransformation” value in series [1] is on record as “Compound NOT metabolized”; in series [2], “Compound metabolized”; in [3], “Compound NOT metabolized”; in series [4] it was “Compound metabolized”; in series [5], “Compound metabolized”; in series [6], “Compound metabolized”. In addition, the “Bacterial Biotransformation” value in series [7] is “Compound NOT metabolized”; in series [8] it was “Compound metabolized”; in [9], “Compound NOT metabolized”; in [10], “Compound NOT metabolized”; in series [11] it was “Compound NOT metabolized”; in series [12], “Compound metabolized”. The “Bacterial Biotransformation” value in series [13] was “Compound NOT metabolized”; in [14], “Compound NOT metabolized”; in series [15], “Compound metabolized”; in [16] it was “Compound metabolized”; in series [17], “Compound NOT metabolized”; in series [18], “Compound NOT metabolized”. The “Bacterial Biotransformation” value in series [19] and in series [20] was “Compound NOT metabolized” each time.
Consider `CN(C)CCC=C1c2ccccc2C=Cc2ccccc21` [CYCLOBENZAPRINE], for which the “Bacterial Biotransformation” value in [1], in series [2], in [3], in series [4], in series [5] and in series [6] was “Compound metabolized” in each case. In addition, the “Bacterial Biotransformation” value in series [7] is reported as “Compound NOT metabolized”; in [8], “Compound metabolized”; in series [9] it was “Compound NOT metabolized”; in [10] it was “Compound NOT metabolized”; in [11], “Compound metabolized”; in [12], “Compound metabolized”. Further, the “Bacterial Biotransformation” value in series [13], in series [14], in series [15], in series [16], in series [17] and in [18] was “Compound metabolized” each time. Moreover, the “Bacterial Biotransformation” value in series [19] and in series [20] was “Compound NOT metabolized” each time.
As for `O=C(Nc1ccccc1)OCC(CN1CCCCC1)OC(=O)Nc1ccccc1` (stereo not given) [DIPERODON], the “Bacterial Biotransformation” value in series [1] is “Compound metabolized”; in [2] it was “Compound metabolized”; in series [3], “Compound metabolized”; in [4] it was “Compound NOT metabolized”; in series [5], “Compound metabolized”; in series [6] it was “Compound NOT metabolized”. The “Bacterial Biotransformation” value in series [7] is reported as “Compound NOT metabolized”; in series [8], “Compound metabolized”; in series [9], “Compound NOT metabolized”; in series [10], “Compound NOT metabolized”; in [11], “Compound NOT metabolized”; in series [12], “Compound metabolized”. Further, the “Bacterial Biotransformation” value is reported as “Compound metabolized” in series [13]; “Compound metabolized” in [14]; “Compound metabolized” in series [15]; “Compound metabolized” in [16]; “Compound NOT metabolized” in [17]; “Compound metabolized” in series [18]. In addition, the “Bacterial Biotransformation” value in series [19] and in series [20] was “Compound NOT metabolized” each time.
